Laboratory results published in patent US20220354963A1, “EXTRACELLULAR VESICLE LINKED TO MOLECULES AND USES THEREOF” (Codiak BioSciences, Inc., priority 2019, published 2022).

Experiments:
[1] = tested on: NRas mRNA; experiment: NRas mRNA expression in HEK-293 cells, branched DNA assay; format: cell-based, human; design: NRAS max inhibition: unit not given here; conditions: for IC20 / IC50 / IC80 / max. inhib. [%]:: HEK293 cells: dose-response; for NRAS max inhibition: Table 6
Method: The ASOs of the present disclosure were tested for their ability to reduce NRas mRNA expression in HEK-293 cells. The HEK-293 cells were grown in cell culture media and seeded onto a 96 well plate at a density of 20,000 cells/well. ASOs were tested in two separate cohorts: 2 doses or 5 doses were given to the HEK-293 cells (See TABLES 4, 5 and 6) at final concentrations of 20 nM and 2 nM respectively. The assay used Lipofectamine2000 transfection and a 48 hr treatment cycle, with incubation at 37° C. and 5% C02. Analysis of the mRNA expression was then carried out using a branched DNA assay.

[2] = tested on: GAPDH; experiment: GAPDH inhibition in HEK-293 cells, same assay; format: cell-based, human; design: GAPDH max inhibition: unit not given here; conditions: for 2D GAPDH 20 nM inhibition: 2D (dual-dose); for GAPDH max inhibition: Table 6

Substance | IC20 [1] | IC50 [1] | IC80 [1] | max. inhib. [%]: [1] | NRAS max inhibition [1] | 2D GAPDH 20 nM inhibition [2] | GAPDH max inhibition [2]
257 (TCTGCCCGGCCAAACAGCGT; chemistry not given here) [compound 257] | 0.069 nM | 0.364 nM | 3.67 nM | 87.3% | 91.79 | 21.09 | 30.55
238 (CTCCCCGAGATGTTCCCTGG; chemistry not given here) [compound 238] | 0.139 nM | 0.646 nM | 4.79 nM | 88.9% | 90.92 | 22.48 | 26.33
231 (GCCGGGCAGAAACTCCGCTG; chemistry not given here) [compound 231] | 0.18 nM | 0.538 nM | 2.1 nM | 90.4% | 93.63 | 36.92 | 29.21
224 (GCTGTTTGGCCGGGCAGAAA; chemistry not given here) [compound 224] | 0.639 nM | 1.93 nM | – | 72.0% | – | – | –
200 (GTTATGGTCAGTTAATAGAA; chemistry not given here) [compound 200] | 0.041 nM | 0.16 nM | 0.666 nM | 97.6% | 98.68 | 33.52 | 38.68
252 (CCAAACAGCGTAACC; chemistry not given here) [compound 252] | 0.072 nM | 0.296 nM | 1.95 nM | 88.4% | 91.49 | 13.40 | 29.98
264 (GCGGAGTTTCTGCCCGGCCA; chemistry not given here) [compound 264] | 0.039 nM | 0.229 nM | 2.43 nM | 88.5% | 91.73 | 10.43 | 26.13
185 (TCCGAGAGTGTTGCCTCGCA; chemistry not given here) [compound 185] | 0.074 nM | 0.349 nM | 3.8 nM | 85.4% | – | – | –
201 (CACCAGGGAACATCTCGGGG; chemistry not given here) [compound 201] | 0.024 nM | 0.1 nM | 0.455 nM | 97.2% | 98.45 | 16.86 | 45.30
247 (AAACAGCGTAACCCCTTCTT; chemistry not given here) [compound 247] | 0.122 nM | 0.561 nM | 4.14 nM | 88.8% | 90.09 | 25.39 | 25.35
248 (CAAACAGCGTAACCCCTTCT; chemistry not given here) [compound 248] | 0.051 nM | 0.288 nM | 2.4 nM | 91.0% | 93.72 | 30.77 | 37.96
223 (CGCTGTTTGGCCGGGCAGAA; chemistry not given here) [compound 223] | 0.121 nM | 0.581 nM | 35.4 nM | 80.8% | 85.75 | 20.53 | 18.44
SEQ ID NO: 232: NRas ASO, starting nucleotide 400, length 20 (CCGGGCAGAAACTCCGCTGA; chemistry not given here) | 0.048 nM | 0.245 nM | 1.59 nM | 93.2% | 95.91 | 36.10 | 53.16
